Data: patent US9034866B2 (Genentech, Inc., priority 2012, dated 2015)
Where “and” joins values, the source holds several entries; their conditions need not be identical. Identical values can stand only once.

Molecular target: nuclear factor-kappa B (NF-kB)-inducing kinase (NIK) (Homo sapiens (Human), UniProt Q99558)
Experiment: NIK Enzyme Inhibition Assay (Transcreener ADP fluorescence polarization)
Type: biochemical
Settings: purified NIK 0.2-1 nM, 10 uM ATP, Morrison's quadratic equation; read-out: NIK ADP-FP (Ki uM)
Method in brief: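 Baculovirus/insect-cell-expressed NIK (0.2-1 nM) incubated with compounds 1-3.5 h at 10 uM ATP. Buffer: 50 mM HEPES pH 7.2, 10 mM MgCl2, 2 mM DTT, 1% DMSO. ADP detected by Transcreener fluorescence polarization (ADP antibody, AlexaFluor 633 tracer) after EDTA quench.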

nuclear factor-kappa B (NF-kB)-inducing kinase (NIK), sequence (Q99558 whole entry): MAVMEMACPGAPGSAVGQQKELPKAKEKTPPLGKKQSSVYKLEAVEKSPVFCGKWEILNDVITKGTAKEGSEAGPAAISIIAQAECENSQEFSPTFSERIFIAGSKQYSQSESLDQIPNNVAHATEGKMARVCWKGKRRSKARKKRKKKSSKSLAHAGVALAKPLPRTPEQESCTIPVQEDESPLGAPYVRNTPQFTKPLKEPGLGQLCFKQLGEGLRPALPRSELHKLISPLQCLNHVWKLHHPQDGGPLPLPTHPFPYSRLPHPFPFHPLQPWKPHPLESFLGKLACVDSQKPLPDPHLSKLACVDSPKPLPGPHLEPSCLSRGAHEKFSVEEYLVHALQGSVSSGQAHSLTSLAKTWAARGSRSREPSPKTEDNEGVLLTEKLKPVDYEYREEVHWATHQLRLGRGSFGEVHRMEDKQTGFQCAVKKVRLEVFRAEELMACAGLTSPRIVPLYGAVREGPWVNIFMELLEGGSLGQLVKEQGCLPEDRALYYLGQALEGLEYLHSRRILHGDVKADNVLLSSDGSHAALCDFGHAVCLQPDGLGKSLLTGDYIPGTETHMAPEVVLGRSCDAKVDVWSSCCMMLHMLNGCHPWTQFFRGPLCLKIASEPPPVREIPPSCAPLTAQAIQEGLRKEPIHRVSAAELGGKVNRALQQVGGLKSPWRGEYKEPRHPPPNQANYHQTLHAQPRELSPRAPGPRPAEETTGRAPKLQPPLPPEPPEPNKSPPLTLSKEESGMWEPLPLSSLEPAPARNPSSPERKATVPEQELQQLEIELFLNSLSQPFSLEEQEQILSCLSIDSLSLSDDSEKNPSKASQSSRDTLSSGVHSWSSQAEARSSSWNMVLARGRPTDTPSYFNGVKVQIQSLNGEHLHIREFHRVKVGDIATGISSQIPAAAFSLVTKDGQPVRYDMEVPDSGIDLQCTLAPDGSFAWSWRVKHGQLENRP

Row | Ki | Structure (SMILES)
1 | 1 µM | Cc1cc([C@](C)(O)C#Cc2ccc3c(c2)-c2nc(C(N)=O)c(C(=O)NC4CCOCC4)n2CCO3)no1 [Example 712, (R)-10-(3-hydroxy-3-(5-methylisoxazol-3-yl)but-1-yn-1-yl)-N3-(tetrahydro-2H-pyran-4-yl)-5,6-dihydrobenzo[f]imidazo[1,2-d][1,4]oxazepine-2,3-dicarboxamide]
2 | 0.0057 µM | CNC(=O)c1c(C(N)=O)nc2n1CCOc1ccc(C#CC3(O)CCCCC3)cc1-2
3 | 0.023 µM | CC(C)(O)C#Cc1ccc2c(c1)-c1nc(C(N)=O)sc1C(CC(N)=O)CO2 (racemic) [Example 49]
4 | 0.045 µM | Cc1nc([C@](C)(O)C#Cc2ccc3c(c2)-n2nc(C(N)=O)cc2CCO3)no1 [Example 673, (R)-9-(3-hydroxy-3-(5-methyl-1,2,4-oxadiazol-3-yl)but-1-yn-1-yl)-4,5-dihydro-benzo[b]pyrazolo[1,5-d][1,4]oxazepine-2-carboxamide]
5 | 0.21 µM | Cc1cc([C@](C)(O)C#Cc2ccc3c(n2)-n2cc(C(N)=O)nc2CCO3)no1 (racemic)
6 | 0.004 µM | CN1CCC(O)(C#Cc2ccc3c(c2)-c2nc(C(N)=O)cn2CCO3)C1=O (stereo not drawn)
7 | 0.004 µM | CC(C)(O)C#Cc1cc2c(cc1F)OCCn1c-2nc(C(N)=O)c1C(=O)NCC1COC1 [Example 91]
8 | > 5 µM | CN(C)C1COc2cc(F)c(C#CC(C)(C)O)cc2-c2nc(C(N)=O)sc21 (racemic)
9 | 0.0059 µM | CN1CCCC(O)(C#Cc2ccc3c(c2)-c2nc(C(N)=O)cn2CCO3)C1=O (stereo not drawn) [Example 158]
10 | 0.0029 µM | CN1CCCC(O)(C#Cc2ccc3c(c2)-c2nc(C(N)=O)sc2CCO3)C1=O (stereo not drawn)
11 | 0.033 µM | CC(C)(O)C#Cc1ccc2c(c1)-c1nc(C(N)=O)sc1CCO2 [Example 3, 9-(3-hydroxy-3-methyl-but-1-ynyl)-4,5-dihydro-6-oxa-3-thia-1-aza-benzo[e]azu-lene-2-carboxylic acid amide]
12 | 0.155 µM | CC(O)(C#Cc1cc2c(cc1F)OCCn1cc(C(N)=O)nc1-2)C(=O)N1CC(F)(F)C1 (racemic) [Example 156]
13 | 0.018 µM | CC(O)(C#Cc1ccc2c(c1)-c1nc(C(N)=O)cn1C1CC2C1)c1nc[nH]n1 (stereo not drawn)
14 | 0.014 µM | Cn1cncc1C(O)c1c(C(N)=O)nc2n1C1CC(C1)c1cc(F)c(C#CC3(O)CCCC3)cc1-2 (stereo not drawn)
15 | 1.8 µM and 1.1 µM | CC(C)(O)C#Cc1ccc2c(c1)-c1nc(C(N)=O)c(CN3CC[C@@H](C#N)C3)n1CCO2
16 | 0.004 µM | NC(=O)c1nc2c(s1)CCOc1ccc(C#CC3(O)CCCC3)cc1-2 [Example 4, 9-(1-hydroxy-cyclopentylethynyl)-4,5-di-hydro-6-oxa-3-thia-1-aza-benzo[e]azu-lene-2-carboxylic acid amide]
17 | 0.037 µM | CC(O)(C#Cc1cc2c(cc1F)OCCn1c-2nc(C(N)=O)c1C1CC1)c1ccccn1 (stereo not drawn)
18 | 0.003 µM | NC(=O)c1cn2c(n1)-c1cc(C#CC3(O)CCCC3)ccc1C1CC2C1 [Example 37, 9-[2-(1-hydroxycyclopentyl)ethynyl]-2,5-diazatetra-cyclo[11.1.1.0^2,6.0^7,12]pen-tadeca-3,5,7,9,11-pentaene-4-carboxamide]
19 | > 5 µM | CC(C)(C#Cc1ccc2c(c1)-c1nc(C(N)=O)cn1CCO2)CO [Example 171]

Row | Structure (SMILES) | Ki
20 | CN1CC[C@](O)(C#Cc2ccc3c(c2)-c2nc(C(N)=O)cn2C2CC3C2)C1=O | > 1.2 µM
21 | CN1CCCC(O)(C#Cc2cc3c(cc2F)OCCc2sc(C(N)=O)nc2-3)C1=O (stereo not drawn) | 0.002 µM
22 | CC(O)(C#Cc1cc2c(cc1F)OCCn1cc(C(N)=O)nc1-2)C(F)(F)F (stereo not drawn) [Example 56, 8-fluoro-9-(4,4,4-trifluoro-3-hydroxy-3-methyl-but-1-ynyl)-4,5-dihydro-6-oxa-1,3a-diaza-benzo[e]azulene-2-carboxylic acid amide] | 2 µM
23 | CC(O)(C#Cc1cc2c(cc1F)OCCn1cc(C(N)=O)nc1-2)c1cncnc1 (stereo not drawn) [Example 14, 8-Fluoro-9-(3-hydroxy-3-pyrimidin-5-yl-but-1-ynyl)-4,5-dihydro-6-oxa-1,3a-diaza-benzo[e]azulene-2-carboxylic acid amide] | 0.864 µM
24 | CC(C)(O)C#Cc1ccc2c(c1)-c1nc(C(N)=O)c(-c3cc[nH]n3)n1CCO2 [Example 110] | 0.023 µM
